Data taken from patent US9096598B2 (Merck Sharp & Dohme Corp., priority 2011, dated 2015).

Assays:
[1] = molecular target: T1, JAK2 (Homo sapiens, UniProt O60674); assay: Jak Biochemical HTRF Assay (JAK2); conditions: recombinant purified GST-tagged catalytic domain, [ATP] 8.5 μM, values given as range classes
T1 construct: recombinant purified GST-tagged catalytic domain for each enzyme; purchased Invitrogen M4290
Outline: (§1)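 GST-tagged recombinant catalytic domain and biotinylated peptide substrate were preincubated with compound for 30 min at room temperature in kinase buffer with 2 mM DTT and 0.05% BSA. ATP then started a 120 min reaction. Phosphopeptide was detected by HTRF (Eu-pY20/streptavidin-Dylight 650, 665/615 nm ratio), and IC50 came from a 4-parameter fit of percent inhibition.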

[2] = molecular target: T2, JAK3 (Homo sapiens, UniProt P52333); assay: Jak Biochemical HTRF Assay (JAK3); conditions: recombinant purified GST-tagged catalytic domain, [ATP] 2.9 μM, values given as range classes
T2 construct: recombinant purified GST-tagged catalytic domain for each enzyme; purchased Invitrogen M4290
Outline: as §1

T2 sequence (P52333 822-1111 limits assumed): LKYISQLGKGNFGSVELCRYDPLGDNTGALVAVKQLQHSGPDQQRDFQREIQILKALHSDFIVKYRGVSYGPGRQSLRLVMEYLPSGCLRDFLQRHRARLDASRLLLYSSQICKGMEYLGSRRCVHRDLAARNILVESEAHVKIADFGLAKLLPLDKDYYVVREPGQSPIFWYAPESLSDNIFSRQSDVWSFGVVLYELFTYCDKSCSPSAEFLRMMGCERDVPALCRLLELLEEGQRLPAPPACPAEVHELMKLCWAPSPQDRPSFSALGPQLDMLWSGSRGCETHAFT
T1 sequence (O60674 849-1124 limits assumed): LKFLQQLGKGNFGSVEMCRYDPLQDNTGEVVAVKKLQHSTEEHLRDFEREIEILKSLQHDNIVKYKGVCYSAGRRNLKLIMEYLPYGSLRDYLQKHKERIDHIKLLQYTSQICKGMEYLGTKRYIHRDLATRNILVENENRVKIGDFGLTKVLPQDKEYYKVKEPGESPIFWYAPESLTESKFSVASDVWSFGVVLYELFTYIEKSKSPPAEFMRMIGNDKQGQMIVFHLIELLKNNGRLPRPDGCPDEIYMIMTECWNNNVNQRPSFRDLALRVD

SMILES | IC50 [1] [nM] | IC50 [2] [nM]
CC(C)[C@H](Nc1cncc(-c2c[nH]c3ncc(NS(C)(=O)=O)cc23)c1)C(=O)NCC(F)(F)F [Example 5-4, N^2-(5-{5-[(methylsulfonyl)amino]-1H-pyrrolo[2,3-b]pyridin-3-yl}pyridin-3-yl)-N-(2,2,2-trifluoroethyl)-L-valinamide] | > 500 | 10 to 500
CC(C)C(Nc1cncc(-c2c[nH]c3ncc(F)cc23)c1)C(=O)NCC(F)(F)F (stereo not drawn) [Example 1-2, 2-{[5-(5-fluoro-1H-pyrrolo[2,3-b]pyridin-3-yl)pyridin-3-yl]amino}-3-methyl-N-(2,2,2-trifluoroethyl)butanamide] | 10 to 500 | ≤ 10
CC(C)[C@@H](Nc1cncc(-c2c[nH]c3ncc(C(=O)NCC4CCS(=O)(=O)C4)cc23)c1)C(=O)NCC(F)(F)F (stereo partly drawn) [Example 3-9, N-[(1,1-dioxidotetrahydrothiophen-3-yl)methyl]-3-[5-({(1R)-2-methyl-1-[(2,2,2-trifluoroethyl)carbamoyl]propyl}amino)pyridin-3-yl]-1H-pyrrolo[2,3-b]pyridine-5-carboxamide] | 10 to 500 | ≤ 10
CC(C)(Nc1cncc(-c2c[nH]c3ncc(C(N)=O)cc23)c1)C(=O)NCC(F)(F)F [Example 1-47, 3-[5-({1,1-dimethyl-2-oxo-2-[(2,2,2-trifluoroethyl)amino]ethyl}amino)pyridin-3-yl]-1H-pyrrolo[2,3-b]pyridine-5-carboxamide] | 10 to 500 | ≤ 10
C[C@@H](Nc1cncc(-c2c[nH]c3ncc(S(C)(=O)=O)cc23)c1)C(=O)NCC(F)(F)F [Example 1-34, N~2~-{5-[5-(methylsulfonyl)-1H-pyrrolo[2,3-b]pyridin-3-yl]pyridin-3-yl}-N-(2,2,2-trifluoroethyl)-D-alaninamide] | > 500 | ≤ 10
CC(C)C(Nc1cncc(-c2c[nH]c3ncc(NS(C)(=O)=O)cc23)c1)C(=O)NCC(F)(F)F (racemic) [Example 5-3, N^2-(5-{5-[(methylsulfonyl)amino]-1H-pyrrolo[2,3-b]pyridin-3-yl}pyridin-3-yl)-N-(2,2,2-trifluoroethyl)valinamide] | 10 to 500 | 10 to 500
CC(C)[C@H](Nc1cncc(-c2c[nH]c3ncc(OCC4CC4)cc23)c1)C(=O)NCC(F)(F)F [Example 2-6, N~2~-{5-[5-(cyclopropylmethoxy)-1H-pyrrolo[2,3-b]pyridin-3-yl]pyridin-3-yl}-N-(2,2,2-trifluoroethyl)valinamide] | 10 to 500 | ≤ 10
CC(C)[C@@H](Nc1cnnc(-c2c[nH]c3ncc(C#N)cc23)n1)C(=O)NCC(F)(F)F [Example 1-17, N~2~-[3-(5-cyano-1H-pyrrolo[2,3-b]pyridin-3-yl)-1,2,4-triazin-5-yl]-N-(2,2,2-trifluoroethyl)-D-valinamide] | 10 to 500 | ≤ 10
CC(C)[C@H](Nc1cncc(-c2c[nH]c3ncc(CNC(=O)C4CC4)cc23)c1)C(=O)NCC(F)(F)F [Example 10-6, N~2~-[5-(5-{[(cyclopropylcarbonyl)amino]methyl}-1H-pyrrolo[2,3-b]pyridin-3-yl)pyridin-3-yl]-N-(2,2,2-trifluoroethyl)valinamide] | 10 to 500 | ≤ 10
N#Cc1cnc2[nH]cc(-c3nncc(N[C@@H]4CCCC[C@@H]4C(=O)NCC(F)(F)F)n3)c2c1 [Example 1-22, (1S,2R)-2-{[3-(5-cyano-1H-pyrrolo[2,3-b]pyridin-3-yl)-1,2,4-triazin-5-yl]amino}-N-(2,2,2-trifluoroethyl)cyclohexane-carboxamide] | 10 to 500 | 10 to 500
COc1cnc2[nH]cc(-c3cncc(N[C@@H](C(=O)NCC(F)(F)F)C(C)(C)O)c3)c2c1 [Example 1-50, 3-hydroxy-N~2~-[5-(5-methoxy-1H-pyrrolo[2,3-b]pyridin-3-yl)pyridin-3-yl]-N-(2,2,2-trifluoroethyl)-D-valinamide] | 10 to 500 | ≤ 10
C=CCOCc1cnc2[nH]cc(-c3cncc(N[C@@H](C(=O)NCC(F)(F)F)C(C)C)c3)c2c1 [Example 9-5, N~2~-(5-{5-[(prop-2-en-1-yloxy)methyl]-1H-pyrrolo[2,3-b]pyridin-3-yl}pyridin-3-yl)-N-(2,2,2-trifluoroethyl)-D-valinamide] | 10 to 500 | ≤ 10
CC(C)C(Nc1cncc(-c2c[nH]c3ncc(CNC(=O)C4CCCC4)cc23)c1)C(=O)NCC(F)(F)F (stereo not drawn) [Example 10-1, N-((3-(5-(3-methyl-1-oxo-1-(2,2,2-trifluoroethylamino)butan-2-ylamino)pyridin-3-yl)-1H-pyrrolo[2,3-b]pyridin-5-yl)methyl)cyclopentanecarboxamide] | > 500 | 10 to 500
O=C(NCC(F)(F)F)[C@H]1CCCC[C@H]1Nc1cncc(-c2c[nH]c3ncc(F)cc23)c1 [Example 1-37, (1S,2R)-2-{[5-(5-fluoro-1H-pyrrolo[2,3-b]pyridin-3-yl)pyridin-3-yl]amino}-N-(2,2,2-trifluoroethyl)cyclohexane-carboxamide] | 10 to 500 | ≤ 10
CC(C)[C@H](Nc1cncc(-c2c[nH]c3ncc(CNC(=O)N4CCCC4)cc23)c1)C(=O)NCC(F)(F)F [Example 10-11, N~2~-[5-(5-{[(pyrrolidin-1-ylcarbonyl)amino]methyl}-1H-pyrrolo[2,3-b]pyridin-3-yl)pyridin-3-yl]-N-(2,2,2-trifluoroethyl)valinamide] | > 500 | 10 to 500
C[C@@H](Nc1cnnc(-c2c[nH]c3ncc(C(N)=O)cc23)n1)C(=O)NCC(F)(F)F [Example 1-14, 3-[5-({(1R)-1-methyl-2-oxo-2-[(2,2,2-trifluoroethyl)amino]ethyl}amino)-1,2,4-triazin-3-yl]-1H-pyrrolo[2,3-b]pyridine-5-carboxamide] | 10 to 500 | ≤ 10
CC(C)Oc1cnc2[nH]cc(-c3cncc(N[C@@H](C(=O)NCC(F)(F)F)C(C)C)c3)c2c1 [Example 2-3, N~2~-{5-[5-(1-methylethoxy)-1H-pyrrolo[2,3-b]pyridin-3-yl]pyridin-3-yl}-N-(2,2,2-trifluoroethyl)-D-valinamide] | 10 to 500 | ≤ 10
CC(C)[C@@H](Nc1cncc(-c2c[nH]c3ncc(C(=O)N4CCC4)cc23)c1)C(=O)NCC(F)(F)F [Example 3-6, N~2~-{5-[5-(azetidin-1-ylcarbonyl)-1H-pyrrolo[2,3-b]pyridin-3-yl]pyridin-3-yl}-N-(2,2,2-trifluoroethyl)-D-valinamide] | 10 to 500 | ≤ 10
C[C@@H](Nc1cnnc(-c2c[nH]c3ncc(C#N)cc23)n1)C(=O)NCC(F)(F)F [Example 1-9, N~2~-[3-(5-cyano-1H-pyrrolo[2,3-b]pyridin-3-yl)-1,2,4-triazin-5-yl]-N-(2,2,2-trifluoroethyl)-D-alaninamide] | 10 to 500 | ≤ 10
CC(C)[C@H](Nc1cncc(-c2c[nH]c3ncc(C#N)cc23)c1)C(=O)NCC(F)(F)F [Example 1-41, N~2~-[5-(5-cyano-1H-pyrrolo[2,3-b]pyridin-3-yl)pyridin-3-yl]-N-(2,2,2-trifluoroethyl)valinamide] | 10 to 500 | ≤ 10
O=C(NCC(F)(F)F)[C@H]1CCCC[C@H]1Nc1cnnc(-c2c[nH]c3ncc(F)cc23)n1 [Example 1-21, (1S,2R)-2-{[3-(5-fluoro-1H-pyrrolo[2,3-b]pyridin-3-yl)-1,2,4-triazin-5-yl]amino}-N-(2,2,2-trifluoroethyl)cyclohexane-carboxamide] | > 500 | 10 to 500
CC(C)[C@@H](Nc1cncc(-c2c[nH]c3ncc(C(=O)NCc4ccn[nH]4)cc23)c1)C(=O)NCC(F)(F)F [Example 3-10, 3-[5-({(1R)-2-methyl-1-[(2,2,2-trifluoroethyl)carbamoyl]propyl}amino)pyridin-3-yl]-N-(1H-pyrazol-5-ylmethyl)-1H-pyrrolo[2,3-b]pyridine-5-carboxamide] | 10 to 500 | ≤ 10
CC(C)[C@H](Nc1cncc(-c2c[nH]c3ncc(OCCc4ccccc4)cc23)c1)C(=O)NCC(F)(F)F [Example 2-7, N~2~-{5-[5-(2-phenylethoxy)-1H-pyrrolo[2,3-b]pyridin-3-yl]pyridin-3-yl}-N-(2,2,2-trifluoroethyl)valinamide] | 10 to 500 | ≤ 10
CC(C)[C@H](Nc1cncc(-c2c[nH]c3ncc(NC(=O)CO)cc23)c1)C(=O)NCC(F)(F)F [Example 5-7, N~2~-(5-{5-[(hydroxyacetyl)amino]-1H-pyrrolo[2,3-b]pyridin-3-yl}pyridin-3-yl)-N-(2,2,2-trifluoroethyl)valinamide] | 10 to 500 | ≤ 10
CC(C)[C@@H](Nc1cncc(-c2c[nH]c3ncc(C(=O)NCc4cnn(C)c4)cc23)c1)C(=O)NCC(F)(F)F [Example 3-12, N-[(1-methyl-1H-pyrazol-4-yl)methyl]-3-[5-({(1R)-2-methyl-1-[(2,2,2-trifluoroethyl)carbamoyl]propyl}amino)pyridin-3-yl]-1H-pyrrolo[2,3-b]pyridine-5-carboxamide] | ≤ 10 | ≤ 10
CC(C)C(Nc1cncc(-c2c[nH]c3ncc(S(=O)(=O)N(C)C)cc23)c1)C(=O)NCC(F)(F)F (stereo not drawn) [Example 4-2, 2-(5-(5-(N,N-dimethylsulfamoyl)-1H-pyrrolo[2,3-b]pyridin-3-yl)pyridin-3-ylamino)-3-methyl-N-(2,2,2-trifluoroethyl)butanamide] | > 500 | 10 to 500
CC(C)OC(=O)Nc1cnc2[nH]cc(-c3cncc(NC(C(=O)NCC(F)(F)F)C(C)C)c3)c2c1 (stereo not drawn) [Example 7-3, 1-methylethyl {3-[5-({2-methyl-1-[(2,2,2-trifluoroethyl)carbamoyl]propyl}amino)pyridin-3-yl]-1H-pyrrolo[2,3-b]pyridin-5-yl}carbamate] | 10 to 500 | 10 to 500
